One test deals with T1, ShHTL7 (Striga hermonthica, UniProt A0A0M3PNA2).
T1 sequence (A0A0M3PNA2 1-271): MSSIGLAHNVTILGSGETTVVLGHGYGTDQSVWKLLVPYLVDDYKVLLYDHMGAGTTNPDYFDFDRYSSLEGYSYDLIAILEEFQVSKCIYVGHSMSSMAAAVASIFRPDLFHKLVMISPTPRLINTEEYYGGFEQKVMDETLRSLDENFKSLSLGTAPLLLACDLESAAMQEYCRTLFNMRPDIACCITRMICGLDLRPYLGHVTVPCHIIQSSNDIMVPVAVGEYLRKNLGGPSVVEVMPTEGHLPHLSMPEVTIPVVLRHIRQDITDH
In words: DSF thermal stability of ShHTL7. As to conditions: 0 to 100 µM; result in words. The test is classed as binding. On the procedure:
About 10 µM of ShHTL7 purified protein was incubated with various concentrations of KK023-N1, Triton X-100, or KK094 (ranging from 0 to 100 µM) for 30 min. Then SYPRO Orange (reporter dye) was added to 1× final concentration. The reactions were carried out in 25 µL 1× PBs buffer. The assay was performed on CFX96 Real-Time System (BIO-RAD, Hercules, CA, USA) thermal cycler on 96-well quantitative polymerase chain reaction (qPCR) white plate, and the plate was sealed with adhesive qPCR plate seal to prevent samples evaporation ([Bai et al., 2019]). First, samples were heated to 25°C for 1 min followed by linear increase in the temperature ramp from 25°C to 99°C at a rate of 0.5°C/15 s. The change in the protein folding was monitored by the changes in the fluorescence of the reporter dye, and the data were analyzed by the machine software that plots the inflection point of fluorescence against temperature. Data were exported into Excel, and replicates were averaged to generate the graph.

The next test addresses T2, OsD14 (Oryza sativa subsp. japonica, UniProt Q10QA5).
T2 construct: made in house; host or cells: Escherichia coli BL21 (DE3)
T2 sequence (Q10QA5 1-318): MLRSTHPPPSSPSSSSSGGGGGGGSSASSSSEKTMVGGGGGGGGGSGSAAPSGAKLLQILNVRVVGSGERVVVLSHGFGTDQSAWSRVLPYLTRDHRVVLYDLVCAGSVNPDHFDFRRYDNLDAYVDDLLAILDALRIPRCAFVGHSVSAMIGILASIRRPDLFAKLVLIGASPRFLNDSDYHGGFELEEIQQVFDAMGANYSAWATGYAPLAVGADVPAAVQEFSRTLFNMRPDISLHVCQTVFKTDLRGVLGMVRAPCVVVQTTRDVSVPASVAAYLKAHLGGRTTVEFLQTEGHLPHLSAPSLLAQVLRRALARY
Kind of test: YLG hydrolysis competition assay with OsD14. Type of test: biochemical, rice (Oryza sativa). Conditions: Figure 3D-F; mean ± SD, n = 3; no unit printed with values (x-axis µM); read-out: IC50, OsD14-mediated YLG hydrolysis (Figure 3).

Usually IC50 stands for the concentration that inhibits the measured activity by half. For the compound `COc1ccc(CCCc2cccc3c2CCN3C(=O)n2ccnn2)cc1` [KK023-N1], on ShHTL7, the “Effect on SYPRO orange fluorescence peak of ShHTL7” value is reported as “decreased the fluorescence of the SYPRO orange” and the “Effect on melting temperature of ShHTL7” value is “did not affect the melting temperature”. For the same compound, the IC50 at OsD14 was 29.6 ± 3.77 µM.

These data come from paper PMC8825254, “Rational design of Striga hermonthica-specific seed germination inhibitors” (Plant Physiology, 2021).
